# Reference: patent US20260306500A1, “METHOD OF INHIBITING ADENOSINE TRIPHOSPHATE SECRETION, METHOD OF INHIBITING HEPATIC STELLATE CELL ACTIVATION, METHOD OF DEACTIVATING HEPATIC STELLATE CELL, METHOD OF TREATING HEPATIC FIBROSIS, METHOD OF TREATING NON-ALCOHOLIC STEATOHEPATITIS, AND METHOD OF TREATING PSORIASIS” (Kurume University, priority 2023, published 2026)
# Experiments:
# LX-2 cells = experiment: ATP secretion from LX-2 cells; assay type: cell-based, human; conditions: 10 μM clodronate
# Experimental: Cells of the immortalized human hepatic stellate cell line LX-2 (manufactured by Merck) was cultured in Dulbecco's modified Eagle's medium (DMEM, 4500 mg/l Glucose, D5796, manufactured by Sigma-Aldrich) supplemented with inactivated 2% fetal bovine serum (FBS), 10 IU/ml penicillin, and 10 IU/ml streptomycin in a T25 or T75 flask at 37° C. in 5% CO2.
# LX-2 cells (2×10^6 cells per well) were seeded in a collagen-coated 6-well culture dish containing Dulbecco's modified Eagle's medium (manufactured by Sigma-Aldrich) supplemented with 10 IU/ml penicillin, […] 2% fetal bovine serum, and cultured in 5% CO2 at 37° C. After 3 days, the LX-2 cells were washed twice and preincubated in Krebs-Ringer buffer (10 mM HEPES-Tris, pH 7.4, 128 mM NaCl, 1.9 mM KCl, 1.2 mM KH2PO4, 1.3 mM MgSO4, 26 mM NaHCO3, 2.4 mM CaCl2, 10 mM glucose, 0.2% (w/v) bovine serum albumin) with or without 10 μM clodronate. The LX-2 cells were then stimulated with Krebs-Ringer buffer supplemented with ionomycin (manufactured by Cayman) regardless of whether clodronate was present or not. For the stimulation, 1 mM EGTA (manufactured by Dojindo) or 10 μM serotonin (5-HT, manufactured by Sigma-Aldrich) was used. The ATP concentration in the culture supernatant was measured in the same manner as in Example 6.
# For an siRNA experiment, a TriFECTa (trademark) RNAi Kit (manufactured by Integrated DNA Technologies) was used. A scramble RNA (scRNA) as a control siRNA, or a VNUT-specific siRNA, was incubated with Lipofectamine 3000 reagent (manufactured by Invitrogen) in OptiMEM reduced-serum medium (#31985070, manufactured by Gibco) at room temperature for 15 minutes, and then added directly to the cultured cells. The LX-2 cells as the transfection mixture were plated, and then cultured for 48 hours. The base sequences of VNUT siRNA forward and VNUT siRNA reverse, used for the above kit, are shown in SEQ ID NOs: 1 and 2, respectively. A positive control for an endogenous gene (#51-01-08-02) and a negative control (#51-01-14-03) were used.
# V-ATPase [1] = molecular target: T1, V-ATPase (Bos taurus, UniProt P31404+P31408); experiment: ATP-dependent proton transport by V-ATPase (acridine orange fluorescence quenching); assay type: biochemical, cattle; conditions: role: inhibitor
# T1 construct: Chromaffin granule membranes were prepared from adrenal glands collected from slaughtered cattle; from tissue; host or cells: cattle adrenal glands, chromaffin granule membranes (sucrose density gradient)
# Experimental: (§1) Chromaffin granule membranes were prepared from adrenal glands collected from slaughtered cattle according to Reference A (Nathan Nelson et al., 1988, Chromaffin Granule Proton Pump, Methods in Enzymology, 157, 619-633). Chromaffin granule membranes prepared by sucrose density gradient centrifugation were suspended in 2 ml of SME buffer (20 mM MOPS-tris (pH 7.0), 0.3 M sucrose, 5 mM EDTA, 10 μg/ml leupeptin, and 10 μg/ml pepstatin)+25% glycerol, and the resulting suspension was aliquoted and stored at −80° C. Under these conditions, the ATP transport activity, the V-ATPase activity, and the catecholamine transport activity remain fully active for at least one year.
# ATP-dependent proton transport by V-ATPase was measured according to Reference B. Proton transport activity was measured using a spectrofluorometer at excitation wavelength of 492 nm and a fluorescence wavelength 540 nm, wherein fluorescence quenching of acridine orange was used as an index (N=2). The transmembrane potential generated was measured using a spectrofluorometer at an excitation wavelength of 580 nm and a fluorescence wavelength of 630 nm, wherein fluorescence quenching of oxonol-V was used as an index (N=2). The acridine measurement liquid (2 ml) contained 20 mM MOPS-tris (pH 7.0), 0.2 M sucrose, 0.1 M potassium chloride, 5 mM magnesium acetate, 0.2 μg valinomycin, 2 μM acridine orange, and about 20 μg of chromaffin granules. The oxonol-V measurement liquid (2 ml) contained 20 mM MOPS-tris (pH 7.0), 0.3 M sucrose, 5 mM magnesium acetate, 5 μM oxonol-V, and about 20 μg of chromaffin granules.
# Chromaffin granule membrane vesicles were prepared in the same manner as in Example 5, and uptake of radiolabeled ATP into the vesicles was measured. Transport activity of catecholamine (dopamine) and ATP-dependent proton transport by V-ATPase were also measured in the same manner as in Example 5.
# V-ATPase [2] = molecular target: T1, V-ATPase; experiment: Transmembrane potential generated (oxonol-V fluorescence quenching) in chromaffin granules; assay type: biochemical, cattle; conditions: role: inhibitor; 5 mM PEP, in presence of ATP, N=2
# Experimental: as §1
# ATP-dependent proton transport by V-ATPase was measured according to Reference B. Proton transport activity was measured using a spectrofluorometer at excitation wavelength of 492 nm and a fluorescence wavelength 540 nm, wherein fluorescence quenching of acridine orange was used as an index (N=2). The transmembrane potential generated was measured using a spectrofluorometer at an excitation wavelength of 580 nm and a fluorescence wavelength of 630 nm, wherein fluorescence quenching of oxonol-V was used as an index (N=2). […]
# T1 sequence (P31404 whole entry, looked up): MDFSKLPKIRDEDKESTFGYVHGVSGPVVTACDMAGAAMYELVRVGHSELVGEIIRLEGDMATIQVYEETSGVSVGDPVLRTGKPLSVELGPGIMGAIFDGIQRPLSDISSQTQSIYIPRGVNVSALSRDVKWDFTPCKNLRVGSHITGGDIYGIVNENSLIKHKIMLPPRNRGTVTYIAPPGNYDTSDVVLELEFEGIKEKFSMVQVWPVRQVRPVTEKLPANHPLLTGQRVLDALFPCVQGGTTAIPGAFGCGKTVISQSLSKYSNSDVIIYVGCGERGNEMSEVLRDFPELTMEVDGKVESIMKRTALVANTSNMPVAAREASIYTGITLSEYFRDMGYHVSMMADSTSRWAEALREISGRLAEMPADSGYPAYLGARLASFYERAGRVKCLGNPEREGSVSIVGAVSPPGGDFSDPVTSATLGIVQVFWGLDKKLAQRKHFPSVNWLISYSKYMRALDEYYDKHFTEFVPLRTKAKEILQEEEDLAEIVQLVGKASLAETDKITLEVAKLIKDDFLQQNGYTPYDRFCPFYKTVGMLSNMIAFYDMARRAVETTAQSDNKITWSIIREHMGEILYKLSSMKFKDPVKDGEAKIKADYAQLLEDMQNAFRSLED
# T1 sequence (P31408 whole entry, looked up): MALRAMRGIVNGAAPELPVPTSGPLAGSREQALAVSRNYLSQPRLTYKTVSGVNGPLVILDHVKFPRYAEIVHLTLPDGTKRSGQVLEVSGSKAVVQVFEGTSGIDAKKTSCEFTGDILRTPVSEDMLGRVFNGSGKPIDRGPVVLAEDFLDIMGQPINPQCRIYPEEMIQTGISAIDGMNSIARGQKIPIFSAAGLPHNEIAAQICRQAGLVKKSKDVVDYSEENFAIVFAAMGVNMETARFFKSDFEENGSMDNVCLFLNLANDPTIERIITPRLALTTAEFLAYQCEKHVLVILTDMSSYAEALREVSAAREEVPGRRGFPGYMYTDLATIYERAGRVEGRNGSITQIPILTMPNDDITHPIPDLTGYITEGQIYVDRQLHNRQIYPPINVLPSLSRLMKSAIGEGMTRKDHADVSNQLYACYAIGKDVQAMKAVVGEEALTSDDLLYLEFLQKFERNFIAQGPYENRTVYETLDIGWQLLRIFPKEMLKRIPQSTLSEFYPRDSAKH
structure (smiles),measurement,setting,value
O=P(O)(O)C(Cl)(Cl)P(=O)(O)O [clodronate],5-HT-promoted ATP secretion,"LX-2 cells; 10 μM 5-HT, N=6 (FIG. 25)",strongly inhibited
same,ATP exocytosis,"LX-2 cells; ionomycin, N=6 (FIG. 24)",inhibited
"C=C(OP(=O)(O)O)C(=O)O [PEP, phosphoenolpyruvic acid]",change in acridine orange quenching level,"V-ATPase [1]; 5 mM PEP, in presence of ATP, N=2",did not change the level of quenching
same,inhibition of V-ATPase,V-ATPase [1]; up to 5 mM PEP (data not shown),did not inhibit
same,change in oxonol-V quenching level,V-ATPase [2],did not change the level of quenching
